Source: paper PMC9007350, “Aurintricarboxylic acid is a canonical disruptor of the TAZ-TEAD transcriptional complex” (PLoS ONE, 2022)

Target: T1, TAZ-TEAD complex (human TAZ (23-57) probe, human TEAD4 (217-434)) (Homo sapiens, UniProt Q15561)
T1 construct: made in house
Assay: TAZ-TEAD fluorescence polarization assay
Assay type: binding
Settings: comparison with ATA, S2 Fig
Protocol: Human YAP (61–100), human TAZ (23–57) and mouse Vgll1 (26–51) peptide probes were used; all the probes had carboxyfluorescein labels. Human TEAD4 (217–434) was used in the assay at a concentration of 350 nM and the peptide probe concentration was 25 nM. Disruptors were titrated at concentrations ranging from 0–150 μM to the probe-TEAD complex, and the mixtures were incubated at 25°C for 20 min. Then, polarization measurements were taken using a Victor3 (PerkinElmer) plate reader.

T1 sequence (Q15561 217-434, one chain of several): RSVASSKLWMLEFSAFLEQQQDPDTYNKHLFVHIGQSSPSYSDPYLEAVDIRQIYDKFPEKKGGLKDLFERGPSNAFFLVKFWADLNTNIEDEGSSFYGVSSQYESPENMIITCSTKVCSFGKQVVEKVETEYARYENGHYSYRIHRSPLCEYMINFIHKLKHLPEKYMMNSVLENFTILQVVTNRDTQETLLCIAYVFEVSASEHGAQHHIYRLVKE

- effect in the TAZ-TEAD FP assay (in words): did not display an effect
Substance: verteporfin
